According to patent publication US20260242398A1, “BENZOPYRIMIDIN-4(3H)-ONES AS PI3K INHIBITORS” (OnKure, Inc., priority 2022, published 2026):
Read-outs that look alike come from different tables or passages of the source.

Columns and labels:
Format in all cases: cell-based
[1] = system: T47D cells expressing mutant PI3Ka (H1047R); assay: In vitro cell proliferation (CellTiter-Glo, 72 hours), T47D cells; details: inhibition of proliferation, read-out: Avg T-47D EC50
Method: (§1) In Vitro Cell Proliferation: Determination of EC50 Values for Inhibition of Proliferation in T47D Cells Expressing Mutant PI3Ka (H1047R) Mutation and SKBR3 Cells Express WT PI3Ka.
(§2) T47D or SKBR3 cells were trypsinized, resuspended in culture media and seeded onto assay ready plates. T47D culture media consisted of RPMI, 10% FBS and Insulin (0.2 units/mL). SKBR3 culture media consisted of McCoys 5a and 10% FBS. Cells were seeded at a density of 1,500 cells/well and dispensed in 50 uL onto 384 well assay ready plates (Corning, 89089-790). Assay ready plates had previously been stamped with 10-point dilutions of compounds of interest, as well as controls. The Echo655 is used to stamp plates at 40 nL of compound or DMSO. Cells were grown for 72 hours at 37° Celsius and 5% CO2. After 72 hours, cells were equilibrated at room temperature for 15 minutes. 30 uL of CellTiter-Glo reagent is added to the plate, which is then shaken for 30 minutes at temperature at 300-500 rpm. Cells are then read on an Envision plate reader. The percentage of inhibition of proliferation was calculated using the following formula: % Inhibition=100×(LumD−LumSample)/(LumD−LumInh), where D is obtained from cells treated with 0.1% DMSO only; Inh is obtained from cells treated with 10 uM Alpelisib. The effective concentration achieving 50% inhibition of proliferation (EC50) is calculated by fitting the Curve using XWfit (v5.3.1.3), equation 201: Y=Bottom+(Top−Bottom)/(1+10^((Log EC50−X)*HillSlope)).

[2] = system: SKBR3 cells express WT PI3Ka; assay: In vitro cell proliferation (CellTiter-Glo, 72 hours), SKBR3 cells; details: inhibition of proliferation
Method: as §1, §2

[3] = system: phosphorylation of AKT (pAKT) in T47D cells expressing mutant PI3Ka (H1047R); assay: In vitro cell pAKT (Ser473) HTRF, T47D cells; details: inhibition of pAKT, read-out: Avg T-47D IC50
Method: (§3) In Vitro Cell pAKT: Determination of IC50 Values for Inhibition of Phosphorylation of AKT (pAKT) in T47D Cells Expressing Mutant PI3Ka (H1047R) Mutation and SKBR3 Cells Express WT PI3Ka.
(§4) T47D or SKBR3 cells were trypsinized, resuspended in culture media and seeded onto assay ready plates. T47D culture media consisted of RPMI, 10% FBS and Insulin (0.2 units/mL). SKBR3 culture media consisted of McCoy's 5a and 10% FBS. Cells were seeded at a density of 5000 cells/well and dispensed in 12.5 uL onto 384 well assay ready plates (Perkin Elmer, 6008238)). Assay ready plates had previously been stamped with 10-point dilutions of compounds of interest, as well as controls. The Echo655 is used to stamp plates at 12.5 nL of compound or DMSO. Cells were grown for 6 hour at 37° Celsius and 5% CO2. After 6 hour, 4 uL of Lysis buffer reagent was added to the plate, which was then centrifuged for 1 minute at 1000 rpm. Then the plate was incubated at room temperature for 30 minutes. After 30 minutes, 4 uL of antibody mix containing Eu Cryptate, d2 Cryptate, and detection buffer, was added to the plate. The plate was centrifuged for 1 minute at 1000 rpm and then incubated overnight at room temperature. The plate was read on an Envision plate reader using the HTRF protocol. The percentage of inhibition of AKT phosphorylation was calculated using the following formula: % Inhibition=100×(pAKTHC−pAKTSample)/(pAKTHC−pAKTLC)), where pAKTHC is obtained from cells treated with 0.1% DMSO only; pAKTLC is obtained from cells treated with 10 uM Alpelisib. The IC50 (concentration achieving 50% inhibition of pAKT) is calculated by fitting the Curve using XWfit (v5.3.1.3), equation 201: Y=Bottom+(Top−Bottom)/(1+10^((Log IC50−X)*HillSlope)).

[4] = system: phosphorylation of AKT (pAKT) in SKBR3 cells express WT PI3Ka; assay: In vitro cell pAKT (Ser473) HTRF, SKBR3 cells; details: inhibition of pAKT
Method: as §3, §4

Row | SMILES | EC50 [1] [µM] | EC50 ([2]; Homo sapiens, SK-BR-3, 72 h) [µM] | IC50 ([3]; 6 hour) [µM] | IC50 ([4]; Homo sapiens, SK-BR-3, 6 h) [µM] | EC50 [2] [µM] | IC50 ([4]; 6 hour) [µM] | EC50 ([1]; Homo sapiens, T47D, 72 h) [µM] | IC50 ([3]; Homo sapiens, T47D, 6 h) [µM]
1 | CC(Nc1ccccc1C(=O)O)c1cc(C(F)(F)F)cc2c(=O)n(C)c(N3CCN(CC(F)(F)F)CC3)nc12 (single isomer, unassigned) [Example 37, 2-((1-(3-methyl-4-oxo-2-(4-(2,2,2-trifluoroethyl)piperazin-1-yl)-6-(trifluoromethyl)-3,4-dihydroquinazolin-8-yl)ethyl)amino)benzoic acid] | 0.5 to 2 | 2 to 15 | 0.001 to 1 | > 15 |  |  |  | 
2 | CC(Nc1ccccc1C(=O)O)c1cc(C(F)(F)F)cc2c(=O)n(C)c(N3CCN(CC(F)(F)F)CC3)nc12 (single isomer, unassigned) [Example 38, 2-((1-(3-methyl-4-oxo-2-(4-(2,2,2-trifluoroethyl)piperazin-1-yl)-6-(trifluoromethyl)-3,4-dihydroquinazolin-8-yl)ethyl)amino)benzoic acid] | > 15 |  | > 15 |  | 2 to 15 | > 15 |  | 
3 | Cc1cc(C(C)Nc2ccccc2C(=O)O)c2nc(SCC(C)C)n(C)c(=O)c2c1 (single isomer, unassigned) [Example 39, 2-((1-(2-(isobutylthio)-3,6-dimethyl-4-oxo-3,4-dihydroquinazolin-8-yl)ethyl)amino)benzoic acid] | > 15 | > 15 | > 15 | > 15 |  |  |  | 
4 | Cc1cc(C(C)Nc2ccccc2C(=O)O)c2nc(SCC(C)C)n(C)c(=O)c2c1 (single isomer, unassigned) [Example 40, 2-((1-(2-(isobutylthio)-3,6-dimethyl-4-oxo-3,4-dihydroquinazolin-8-yl)ethyl)amino)benzoic acid] | 2 to 15 |  | 1 to 5 |  | > 15 | > 15 |  | 
5 | Cc1cc(C(C)Nc2ccccc2C(=O)O)c2nc(Nc3ccc(Cl)cc3)n(C)c(=O)c2c1 (single isomer, unassigned) [Example 41, 2-((1-(2-((4-chlorophenyl)amino)-3,6-dimethyl-4-oxo-3,4-dihydroquinazolin-8-yl)ethyl)amino)benzoic acid] |  |  |  | > 15 | 2 to 15 |  | 2 to 15 | > 15
6 | Cc1cc(C(C)Nc2ccccc2C(=O)O)c2nc(Nc3ccc(Cl)cc3)n(C)c(=O)c2c1 (single isomer, unassigned) [Example 42, 2-((1-(2-((4-chlorophenyl)amino)-3,6-dimethyl-4-oxo-3,4-dihydroquinazolin-8-yl)ethyl)amino)benzoic acid] | 2 to 15 |  | > 15 |  | > 15 | > 15 |  | 
7 | Cc1cc(C(C)Nc2ccccc2C(=O)O)c2nc(NCc3ccc(Cl)cc3)n(C)c(=O)c2c1 (single isomer, unassigned) [Example 43, 2-((1-(2-((4-chlorobenzyl)amino)-3,6-dimethyl-4-oxo-3,4-dihydroquinazolin-8-yl)ethyl)amino)benzoic acid] |  | > 15 | 5 to 15 | > 15 |  |  | 2 to 15 | 
8 | Cc1cc(C(C)Nc2ccccc2C(=O)O)c2nc(NCc3ccc(Cl)cc3)n(C)c(=O)c2c1 (single isomer, unassigned) [Example 44, 2-((1-(2-((4-chlorobenzyl)amino)-3,6-dimethyl-4-oxo-3,4-dihydroquinazolin-8-yl)ethyl)amino)benzoic acid] | 2 to 15 |  | > 15 |  | > 15 | > 15 |  | 
9 | Cc1cc(C(C)Nc2ccccc2C(=O)O)c2nc(NC[C@H](C)c3ccccc3)n(C)c(=O)c2c1 (single isomer, unassigned) [Example 45] | 2 to 15 |  | > 15 | > 15 | > 15 |  |  | 
10 | Cc1cc(C(C)Nc2ccccc2C(=O)O)c2nc(NC[C@H](C)c3ccccc3)n(C)c(=O)c2c1 (single isomer, unassigned) [Example 46] | 0.5 to 2 |  | 0.001 to 1 |  | 2 to 15 | > 15 |  | 
11 | Cc1cc(C(C)Nc2ccccc2C(=O)O)c2nc(NC[C@@H](C)c3ccccc3)n(C)c(=O)c2c1 (single isomer, unassigned) [Example 47] | 0.5 to 2 |  | 5 to 15 | > 15 | > 15 |  |  | 
12 | Cc1cc(C(C)Nc2ccccc2C(=O)O)c2nc(NC[C@@H](C)c3ccccc3)n(C)c(=O)c2c1 (single isomer, unassigned) [Example 48] | 2 to 15 |  | > 15 |  | 2 to 15 | > 15 |  | 
13 | Cc1cc(C(C)Nc2ccccc2C(=O)O)c2nc(N3CCC(C)(C)CC3)n(C3CC3)c(=O)c2c1 (single isomer, unassigned) [Example 49, 2-((1-(3-cyclopropyl-2-(4,4-dimethylpiperidin-1-yl)-6-methyl-4-oxo-3,4-dihydroquinazolin-8-yl)ethyl)amino)benzoic acid] |  |  | 1 to 5 | > 15 | 2 to 15 |  | 2 to 15 | 
14 | Cc1cc(C(C)Nc2ccccc2C(=O)O)c2nc(N3CCC(C)(C)CC3)n(C3CC3)c(=O)c2c1 (single isomer, unassigned) [Example 50, 2-((1-(3-cyclopropyl-2-(4,4-dimethylpiperidin-1-yl)-6-methyl-4-oxo-3,4-dihydroquinazolin-8-yl)ethyl)amino)benzoic acid] | 2 to 15 |  | > 15 |  | > 15 | > 15 |  | 
15 | Cc1cc(C(C)Nc2ccccc2C(=O)O)c2nc(N3CCC(C)(C)CC3)n(CF)c(=O)c2c1 (single isomer, unassigned) [Example 51, 2-((1-(2-(4,4-dimethylpiperidin-1-yl)-3-(fluoromethyl)-6-methyl-4-oxo-3,4-dihydroquinazolin-8-yl)ethyl)amino)benzoic acid] |  |  | 5 to 15 | > 15 | 2 to 15 |  | 2 to 15 | 
16 | Cc1cc(C(C)Nc2ccccc2C(=O)O)c2nc(N3CCC(C)(C)CC3)n(CF)c(=O)c2c1 (single isomer, unassigned) [Example 52, 2-((1-(2-(4,4-dimethylpiperidin-1-yl)-3-(fluoromethyl)-6-methyl-4-oxo-3,4-dihydroquinazolin-8-yl)ethyl)amino)benzoic acid] | 2 to 15 |  | > 15 |  | > 15 | > 15 |  | 
17 | Cc1cc(C(C)Nc2cccc(F)c2C(=O)O)c2nc(N3CCC(C)(C)CC3)n(C)c(=O)c2c1 (centres unmarked) [Example 28, 2-((1-(2-(4,4-dimethylpiperidin-1-yl)-3,6-dimethyl-4-oxo-3,4-dihydroquinazolin-8-yl)ethyl)amino)-6-fluorobenzoic acid] |  | > 15 |  | > 15 |  |  | 2 to 15 | 0.001 to 1
